IC50 data for 15 molecules are collected here from the Kinase Knowledgebase extract (Sharma et al. 2016).

pIC50: −log10 of the molar value.

For the assay, the target named is PIK3CA (UniProt P42336). In words: In Vitro Inhibition of PIK3CA Kinase Activity.
PIK3CA, sequence (P42336 whole entry, looked up): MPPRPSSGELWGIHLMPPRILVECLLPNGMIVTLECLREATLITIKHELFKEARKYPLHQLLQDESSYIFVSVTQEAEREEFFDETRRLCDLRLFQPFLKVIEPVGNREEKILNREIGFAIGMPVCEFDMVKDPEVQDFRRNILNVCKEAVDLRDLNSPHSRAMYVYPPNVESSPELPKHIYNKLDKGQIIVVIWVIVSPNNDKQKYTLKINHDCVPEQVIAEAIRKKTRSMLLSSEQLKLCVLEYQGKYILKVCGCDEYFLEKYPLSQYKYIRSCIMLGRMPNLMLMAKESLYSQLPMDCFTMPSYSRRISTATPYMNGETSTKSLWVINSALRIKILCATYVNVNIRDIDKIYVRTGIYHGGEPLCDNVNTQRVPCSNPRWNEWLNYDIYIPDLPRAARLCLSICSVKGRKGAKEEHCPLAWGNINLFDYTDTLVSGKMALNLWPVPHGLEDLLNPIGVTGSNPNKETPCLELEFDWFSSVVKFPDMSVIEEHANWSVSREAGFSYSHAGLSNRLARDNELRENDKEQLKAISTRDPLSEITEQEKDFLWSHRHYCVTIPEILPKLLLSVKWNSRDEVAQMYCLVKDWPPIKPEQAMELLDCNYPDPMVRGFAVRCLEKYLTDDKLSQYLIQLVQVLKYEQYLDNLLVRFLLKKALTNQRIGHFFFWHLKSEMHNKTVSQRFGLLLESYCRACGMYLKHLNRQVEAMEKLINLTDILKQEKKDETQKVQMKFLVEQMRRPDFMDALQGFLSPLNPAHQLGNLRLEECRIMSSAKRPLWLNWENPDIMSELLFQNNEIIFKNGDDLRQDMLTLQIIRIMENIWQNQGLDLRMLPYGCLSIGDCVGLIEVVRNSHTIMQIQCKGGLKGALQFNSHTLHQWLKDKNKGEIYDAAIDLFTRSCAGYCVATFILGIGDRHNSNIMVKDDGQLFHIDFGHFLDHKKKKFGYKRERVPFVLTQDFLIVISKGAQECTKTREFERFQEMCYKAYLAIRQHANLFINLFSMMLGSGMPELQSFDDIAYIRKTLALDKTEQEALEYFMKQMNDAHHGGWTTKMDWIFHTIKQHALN
For orientation: pIC50 means the IC50 on a negative log10 scale, so that one unit is a factor of ten. Turning to `COc1ccc(-c2cc(=O)cc(N3CCOCC3)o2)cc1`, the pIC50 is 4.82.

As for `CC1CN(c2cc(=O)c3ccc4ccccc4c3o2)CCO1` (stereo not given), the pIC50 was 5.60.

Turning to `O=c1cc(N2CCOCC2)nc2c3ccccc3ccn12`, the pIC50 was 3.12. For the molecule `O=c1cc(N2CCOCC2)oc2cc(OCc3ccc(Cl)cc3)ccc12`, the pIC50 was < 4.00. Under `O=c1cc(N2CCOCC2)oc2ccc3ccccc3c12` stands 4.96; under `O=c1cc(N2CCOCC2)oc2cc3ccccc3cc12`, 4.80; under `O=c1cc(-c2ccc(Cl)cc2)oc(N2CCOCC2)c1`, 5.00. As to `O=c1cc(N2CCOCC2)oc2c3c(ccc12)CCCC3`, the pIC50 is 4.74. To `O=C1c2ccccc2C(=O)N1CCCOc1ccc2c(=O)cc(N3CCOCC3)oc2c1` belongs 5.22; to `O=c1cc(N2CCOCC2)oc2cc(OCc3ccc(F)cc3)ccc12`, 4.02; to `CC(C)(C)c1ccc(-c2cc(=O)cc(N3CCOCC3)o2)cc1`, 4.43. In the case of `O=c1cc(N2CCOCC2)oc2c1ccc1ccccc12`, the pIC50 was 4.70. In turn, `O=c1cc(-c2ccc(F)cc2)oc(N2CCOCC2)c1` gave a pIC50 of 4.89. The molecule `O=c1cc(N2CCSCC2)oc2c1ccc1ccccc12` had a pIC50 of 5.22. With `O=c1cc(-c2ccccc2)oc(N2CCOCC2)c1`, the pIC50 was 4.52.
